{"source": "paper PMC4503349", "about": "(PLoS ONE, 2015)", "key": {"[1]": {"molecular_target": "T1, calcineurin (CaN; CnAα catalytic subunit) (Homo sapiens, UniProt Q08209)", "T1 construct": "gene PPP3CA; recombinant human CaN, comprising CnAα and CnB subunits; with calcineurin B (CnB); calmodulin", "test": "malachite green phosphatase assay with RII phosphopeptide, absorbance dose-response, calmodulin present", "type": "biochemical"}, "[2]": {"molecular_target": "T1, calcineurin (CaN; CnAα catalytic subunit)", "test": "malachite green phosphatase assay with RII phosphopeptide", "type": "biochemical"}}, "note": "Counter-ions that a name gives are not always drawn."}
{"smiles": "Fc1ccc(C(c2ccc(F)cc2)N2CCN(C/C=C/c3ccccc3)CC2)cc1", "note": "[LDN-0013905, flunarizine hydrochloride]", "values": [{"measurement": "IC50", "setting": "[1]; read-out: IC50", "value": 106, "unit": "µM"}]}
{"smiles": "CN1CCN(CCCN2c3ccccc3Sc3ccc(C(F)(F)F)cc32)CC1", "note": "[LDN-0013906, tri-fluoperazine dihydrochloride]", "values": [{"measurement": "IC50", "setting": "[1]", "value": 4.5, "unit": "µM"}]}
{"smiles": "O=C(O)[C@@H]1[C@H](C(=O)O)[C@H]2CC[C@@H]1O2", "note": "[endothall]", "values": [{"measurement": "IC50", "setting": "[2]", "value": 12.6, "unit": "µM"}]}
